The target of one series is Histone deacetylase 1 (Homo sapiens, UniProt Q13547). As to the kind of experiment: Inhibition of recombinant human HDAC1 after 60 mins by fluorescence assay.
Another series concerns the target Histone deacetylase 4 (Homo sapiens, UniProt P56524). As to the kind of experiment: Inhibition of recombinant human HDAC4 after 60 mins by fluorescence assay.
The target in another series is T1, Histone deacetylase 7 (Homo sapiens, UniProt Q8WUI4).
T1 sequence (Q8WUI4 whole entry): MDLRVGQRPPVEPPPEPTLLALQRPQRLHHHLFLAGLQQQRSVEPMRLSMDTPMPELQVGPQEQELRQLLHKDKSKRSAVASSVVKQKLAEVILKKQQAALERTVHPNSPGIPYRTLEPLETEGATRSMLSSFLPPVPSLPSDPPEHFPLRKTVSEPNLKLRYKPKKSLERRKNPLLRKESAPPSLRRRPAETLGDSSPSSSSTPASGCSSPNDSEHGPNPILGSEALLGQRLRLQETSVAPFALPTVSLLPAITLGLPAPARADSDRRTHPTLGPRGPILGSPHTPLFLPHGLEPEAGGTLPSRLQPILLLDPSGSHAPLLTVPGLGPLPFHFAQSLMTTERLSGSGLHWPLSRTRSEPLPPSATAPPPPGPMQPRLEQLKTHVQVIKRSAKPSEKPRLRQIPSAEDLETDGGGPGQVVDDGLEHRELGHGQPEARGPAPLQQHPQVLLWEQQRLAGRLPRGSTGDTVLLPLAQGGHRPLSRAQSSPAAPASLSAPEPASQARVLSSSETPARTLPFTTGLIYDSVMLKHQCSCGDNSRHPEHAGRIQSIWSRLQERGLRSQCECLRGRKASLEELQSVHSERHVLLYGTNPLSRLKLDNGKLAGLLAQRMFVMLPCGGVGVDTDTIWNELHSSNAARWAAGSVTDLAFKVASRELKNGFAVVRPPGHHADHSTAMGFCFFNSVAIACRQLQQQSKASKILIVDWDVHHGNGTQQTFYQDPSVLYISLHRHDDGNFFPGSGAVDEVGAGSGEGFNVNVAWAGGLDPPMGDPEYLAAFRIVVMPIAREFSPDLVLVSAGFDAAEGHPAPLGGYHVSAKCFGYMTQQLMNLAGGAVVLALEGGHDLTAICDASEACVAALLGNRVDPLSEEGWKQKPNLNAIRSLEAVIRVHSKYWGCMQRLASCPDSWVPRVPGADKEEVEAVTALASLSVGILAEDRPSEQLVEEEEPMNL
As to the kind of experiment: Inhibition of recombinant human HDAC7 after 60 mins by fluorescence assay.

Series [1] relates to Mus musculus. Briefly: Toxicity in human DU145 cells xenografted BALB/c mouse assessed as change in body weight at 20 to 80 mg/kg, iv administered for 5 times a week for after 4 weeks. In kind it is organism-based, DU-145. The following applies: in vivo, 672 h. In general terms: Xenograft models place foreign cells or tissue in a host animal.
Series [2] is described as follows: Antiproliferative activity against human HLF cells after 72 hrs by CCK8 assay. In kind it is cell-based. (Formazan colour is commonly taken as a measure of viable cells.)
Series [3] in a line: Aqueous solubility of the compound. In kind it is physicochemical. The conditions noted are these: buffer.
In series [4] the test system is DU-145. Briefly: Antitumor activity against human DU145 cells xenografted in BALB/c mouse assessed as delay in tumor growth at 40 mg/kg, iv administered for 5 times a week for after 4 weeks. In kind it is functional.
For series [5], the system named is DU-145. Briefly: Antitumor activity against human DU145 cells xenografted in BALB/c mouse assessed as delay in tumor growth at 80 mg/kg, iv administered for 5 times a week for after 4 weeks. The series is classed as functional.
The subject of series [6] is DU-145. As to the kind of experiment: Antitumor activity against human DU145 cells xenografted in iv dosed BALB/c mouse assessed as delay in tumor growth after 4 weeks. In kind it is functional, organism-based.
Series [7] in a line: Antiproliferative activity against human MOLT4 cells after 72 hrs by CCK8 assay. In kind it is functional, MOLT-4. The conditions noted are these: Homo sapiens, MOLT-4, 72 h.
The subject of series [8] is DU-145. As to the kind of experiment: Antitumor activity against human DU145 cells xenografted in BALB/c mouse assessed as tumor growth inhibition at 20 mg/kg, iv administered for 5 times a week for after 4 weeks. The series is classed as functional. The following applies: DU-145, iv, 672 h, read-out: GI.
In series [9] the test system is DU-145. Briefly: Antitumor activity against human DU145 cells xenografted in BALB/c mouse assessed as delay in tumor growth at 20 mg/kg, iv administered for 5 times a week for after 4 weeks. In kind it is functional.
The nature of another series: in vitro. The following applies: human, DU145 cells and HLF cells.
The next series relates to U-937. As to the kind of experiment: Antiproliferative activity against human U937 cells after 72 hrs by CCK8 assay. In kind it is functional. The following applies: Homo sapiens, U-937, 72 h.
Series [10] relates to Mus musculus. As to the kind of experiment: Toxicity in human DU145 cells xenografted BALB/c mouse assessed as mortality at 20 to 80 mg/kg, iv administered for 5 times a week for after 4 weeks. The series is classed as organism-based, DU-145. The following applies: in vivo, 672 h.
In series [11] the test system is DU-145. As to the kind of experiment: Fold increase in DU145 over HLF selectivity (GI50 ratio) relative to FK228 after 72 hrs by CCK8 assay.
For series [12], the system named is DU-145. Briefly: Fold increase in DU145 over HLF selectivity (GI50 ratio) relative to largazole after 72 hrs by CCK8 assay.

Each structure is given as a SMILES string.

Sequence of Histone deacetylase 4 (P56524 whole entry): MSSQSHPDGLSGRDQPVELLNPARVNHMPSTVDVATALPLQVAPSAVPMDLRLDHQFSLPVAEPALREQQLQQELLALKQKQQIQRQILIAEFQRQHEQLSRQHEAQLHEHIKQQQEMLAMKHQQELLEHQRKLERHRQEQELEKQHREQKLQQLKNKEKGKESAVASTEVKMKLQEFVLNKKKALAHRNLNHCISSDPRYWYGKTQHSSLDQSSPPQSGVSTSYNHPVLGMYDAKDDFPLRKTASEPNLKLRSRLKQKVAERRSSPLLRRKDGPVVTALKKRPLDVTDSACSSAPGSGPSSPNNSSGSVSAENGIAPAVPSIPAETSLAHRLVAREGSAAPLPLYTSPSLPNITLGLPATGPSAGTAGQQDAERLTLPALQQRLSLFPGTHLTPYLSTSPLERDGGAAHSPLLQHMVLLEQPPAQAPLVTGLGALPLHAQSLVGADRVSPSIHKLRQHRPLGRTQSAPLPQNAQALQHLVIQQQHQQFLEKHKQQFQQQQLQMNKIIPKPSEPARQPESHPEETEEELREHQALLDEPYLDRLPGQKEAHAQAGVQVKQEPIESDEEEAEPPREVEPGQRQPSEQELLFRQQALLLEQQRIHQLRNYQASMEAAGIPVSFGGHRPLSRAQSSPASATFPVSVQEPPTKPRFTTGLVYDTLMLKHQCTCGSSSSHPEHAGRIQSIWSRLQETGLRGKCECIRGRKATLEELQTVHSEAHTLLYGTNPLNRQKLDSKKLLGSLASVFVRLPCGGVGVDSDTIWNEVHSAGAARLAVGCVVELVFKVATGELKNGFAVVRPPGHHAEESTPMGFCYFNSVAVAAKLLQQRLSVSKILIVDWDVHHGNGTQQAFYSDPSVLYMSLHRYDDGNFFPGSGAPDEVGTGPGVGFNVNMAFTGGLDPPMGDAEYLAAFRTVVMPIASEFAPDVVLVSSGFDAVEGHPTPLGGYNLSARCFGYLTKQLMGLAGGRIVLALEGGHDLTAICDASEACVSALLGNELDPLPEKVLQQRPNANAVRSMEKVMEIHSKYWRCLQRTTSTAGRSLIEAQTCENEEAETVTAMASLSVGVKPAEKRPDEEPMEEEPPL
Sequence of Histone deacetylase 1 (Q13547 whole entry): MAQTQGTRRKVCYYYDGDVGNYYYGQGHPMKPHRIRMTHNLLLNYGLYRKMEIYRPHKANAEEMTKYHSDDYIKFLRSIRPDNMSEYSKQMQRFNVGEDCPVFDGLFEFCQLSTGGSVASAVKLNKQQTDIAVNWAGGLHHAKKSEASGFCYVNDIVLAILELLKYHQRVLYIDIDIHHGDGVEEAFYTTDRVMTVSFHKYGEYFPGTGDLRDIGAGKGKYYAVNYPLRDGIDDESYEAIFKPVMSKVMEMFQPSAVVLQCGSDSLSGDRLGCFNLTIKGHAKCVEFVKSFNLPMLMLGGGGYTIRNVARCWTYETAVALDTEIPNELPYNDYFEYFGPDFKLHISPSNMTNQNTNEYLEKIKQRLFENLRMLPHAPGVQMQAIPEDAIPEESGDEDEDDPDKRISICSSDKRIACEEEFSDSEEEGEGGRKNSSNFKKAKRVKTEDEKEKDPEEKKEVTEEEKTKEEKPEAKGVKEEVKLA
Description for in vitro: Selectivity ratio of GI50 for human DU145 cells to GI50 for human HLF cells

In the case of `C/C=C1\NC(=O)c2csc(n2)[C@@H](C(C)C)NC(=O)C[C@@H](/C=C/CCS)OC(=O)[C@H](C(C)C)NC1=O`, the IC50 on Histone deacetylase 1 is 2.18 nM; on Histone deacetylase 4, over 10000 nM; at Histone deacetylase 7 it was over 10000 nM.
As for `C/C=C1\NC(=O)c2csc(n2)CNC(=O)C[C@@H](/C=C/CCSC(C)=O)OC(=O)[C@H](C(C)C)NC1=O`, the IC50 at Histone deacetylase 1 is 21.6 nM; at Histone deacetylase 4 it was over 10000 nM; on Histone deacetylase 7, over 10000 nM. The Activity entry was “Non-toxic” in the series on Mus musculus [1]; 75.2% with DU-145 [4]; 81.2% in the series with DU-145 [5]; “Dose-dependent effect” in the series on DU-145 [6]; 51.7% in the series on DU-145 [9]; “Non-toxic” with Mus musculus [10]. The same molecule returned a GI50 at 72 h in [2] of 321 nM. Also, in series [3], the solubility entry is reported as “soluble”. Besides, the figures for the 50% growth inhibitory concentration (GI50) (in series [7]; in the series with U-937) were 7.22 nM and 10.5 nM, respectively. Further, in the series on DU-145 [8], the inhibition in vivo at 20 mg/kg was 51.7%. Besides, in “in vitro”, the selectivity ratio turned out to be 0.034.
Turning to `C/C=C1\NC(=O)c2csc(n2)CNC(=O)C[C@@H](/C=C/CCSC(=O)CCCCCCC)OC(=O)[C@H](C(C)C)NC1=O`, the figures for the IC50 at Histone deacetylase 1, on Histone deacetylase 4 and at Histone deacetylase 7 were 158 nM, over 10000 nM and over 10000 nM, respectively. This molecule also yielded a GI50 at 72 h in [2] of 312 nM. The GI50 in series [7] was found to be 5.87 nM; with U-937, 6.59 nM. In addition, in “in vitro”, the selectivity ratio was 0.022. Moreover, the Ratio was 22 in the series on DU-145 [11] and 20 in the series on DU-145 [12].
As to `C/C=C1\NC(=O)c2csc(n2)CNC(=O)C[C@@H](/C=C/CCS)OC(=O)[C@H](C(C)C)NC1=O`, the IC50 was 2.78 nM at Histone deacetylase 1, over 10000 nM at Histone deacetylase 4 and over 10000 nM at Histone deacetylase 7.
With `C/C=C1\NC(=O)c2csc(n2)[C@@H](C(C)C)NC(=O)C[C@@H](/C=C/CCSC(=O)CCCCCCC)OC(=O)[C@H](C(C)C)NC1=O`, the values for the IC50 on Histone deacetylase 1, on Histone deacetylase 4 and on Histone deacetylase 7 were 165 nM, over 10000 nM and over 10000 nM, respectively. Moreover, the concentration for 50% growth inhibition (GI50) at 72 h in [2] amounted to 710 nM. The GI50 in series [7] is 22 nM; with U-937, 31.7 nM. In addition, the selectivity ratio in the series “in vitro” was determined as 0.029. The Ratio in the series with DU-145 [11] was 8.

The IC50 is the concentration that gives 50% inhibition. In general, GI50 refers to the concentration giving 50% growth inhibition. A low value points to more potent growth inhibition.

Source of the values: ChEMBL document CHEMBL3621100, “Discovery of Novel Class I Histone Deacetylase Inhibitors with Promising in Vitro and in Vivo Antitumor Activities” (J Med Chem, 2015).
